According to patent publication US10253052B2, “HBED-bisphosphonates, radiometal conjugates and their use as theranostic agents” (Five Eleven Pharma Inc., priority 2015, dated 2019):

Experiments:
[1] = In vitro binding to hydroxyapatite; details: 20 mg hydroxyapatite in saline, 10 min at room temperature
Description: Hydroxyapatite (20 mg, Sigma-Aldrich, reagent grade powder) was incubated in isotonic saline (1 mL) for 24 h. Subsequently, either ^68Ga labeled 1a-h, 2, 3, BPAMD, or [^18F]NaF (1 μCi) was added to the hydroxyapatite suspension. After vortexing for 10 seconds, the suspension was incubated for 10 min at room temperature. The samples were then centrifuged at 10,000 rpm for 3 min and the supernatant was removed. The hydroxyapatite fraction was washed twice with saline (1 mL). Radioactivity in the combined supernatants and the hydroxyapatite fraction was measured using a gamma counter. The proportion of the ^68Ga complex binding to hydroxyapatite was determined as percent of ^68Ga absorbed to hydroxyapatite.

[2] = In vivo biodistribution in mice; set-up: species or system normal CD-1 male mice; details: iv
Description: Biodistribution experiments were performed by intravenously administering ^68Ga labeled 1a-h, 2, 3, BPAMD, and [^18F]NaF into normal, healthy male CD-1 mice (25-30 g). The injection activity was 20-30 μCi/animal. […] Organs of interest were harvested, weighed, and counts of radioactivity were measured by a gamma counter. The biodistribution of each sample was calculated as a percentage of the injected dose per gram of wet tissue weight (% ID/g). Tibia and femur bones were harvested and counted as bone samples.

With `O=C([O-])CN(CCN(CC(=O)[O-])Cc1cc(CCC(=O)NC(P(=O)(O)O)P(=O)(O)O)ccc1[O-])Cc1cc(CCC(=O)NCC(=O)O)ccc1[O-].[68Ga+3]` [[^68Ga]1c] the “Hydroxyapatite Binding (%)” value [1] was 89.1 ± 1.0%, the “bone to blood ratio” value ([2]; 2 min) was 0.7 and the “bone to muscle ratio” value ([2]; 2 min) was 5. The “Biodistribution: Blood” value ([2]; 2 min post injection) was 11.7 ± 0.55 % dose/g, the “Biodistribution: Bone” value ([2]; 2 min post injection) was 8.40 ± 1.32 % dose/g and the “Biodistribution: Brain” value ([2]; 2 min post injection) was 0.27 ± 0.06 % dose/g. The “Biodistribution: Heart” value ([2]; 2 min post injection) was 4.57 ± 0.45 % dose/g, the “Biodistribution: Kidney” value ([2]; 2 min post injection) was 27.7 ± 5.46 % dose/g and the “Biodistribution: Liver” value ([2]; 2 min post injection) was 4.78 ± 0.18 % dose/g. For the same compound, the “Biodistribution: Lung” value ([2]; 2 min post injection) was 5.66 ± 0.24 % dose/g, the “Biodistribution: Muscle” value ([2]; 2 min post injection) was 1.68 ± 0.11 % dose/g and the “Biodistribution: Pancreas” value ([2]; 2 min post injection) was 1.99 ± 0.23 % dose/g. The “Biodistribution: Skin” value ([2]; 2 min post injection) was 2.05 ± 0.16 % dose/g, the “Biodistribution: Spleen” value ([2]; 2 min post injection) was 3.41 ± 0.08 % dose/g and the “bone to blood ratio” value ([2]; 30 min) was 8. For the same compound, the “bone to muscle ratio” value ([2]; 30 min) was 49, the “Biodistribution: Blood” value ([2]; 30 min (0.5 hr) post injection) was 1.34 ± 0.32 % dose/g and the “Biodistribution: Bone” value ([2]; 30 min (0.5 hr) post injection) was 11.3 ± 0.26 % dose/g. For the same compound, the “Biodistribution: Brain” value ([2]; 30 min (0.5 hr) post injection) was 0.05 ± 0.02 % dose/g, the “Biodistribution: Heart” value ([2]; 30 min (0.5 hr) post injection) was 0.49 ± 0.07 % dose/g and the “Biodistribution: Kidney” value ([2]; 30 min (0.5 hr) post injection) was 2.58 ± 0.05 % dose/g. For the same compound, the “Biodistribution: Liver” value ([2]; 30 min (0.5 hr) post injection) was 2.21 ± 0.27 % dose/g, the “Biodistribution: Lung” value ([2]; 30 min (0.5 hr) post injection) was 0.84 ± 0.11 % dose/g and the “Biodistribution: Muscle” value ([2]; 30 min (0.5 hr) post injection) was 0.23 ± 0.05 % dose/g. For the same compound, the “Biodistribution: Pancreas” value ([2]; 30 min (0.5 hr) post injection) was 0.39 ± 0.05 % dose/g, the “Biodistribution: Skin” value ([2]; 30 min (0.5 hr) post injection) was 0.53 ± 0.18 % dose/g and the “Biodistribution: Spleen” value ([2]; 30 min (0.5 hr) post injection) was 0.97 ± 0.01 % dose/g. For the same compound, the “bone to blood ratio” value ([2]; 60 min) was 23, the “bone to muscle ratio” value ([2]; 60 min) was 102 and the “Biodistribution: Blood” value ([2]; 60 min (1 hr) post injection) was 0.64 ± 0.17 % dose/g. For the same compound, the “Biodistribution: Bone” value ([2]; 60 min (1 hr) post injection) was 14.7 ± 0.66 % dose/g, the “Biodistribution: Brain” value ([2]; 60 min (1 hr) post injection) was 0.03 ± 0.01 % dose/g and the “Biodistribution: Heart” value ([2]; 60 min (1 hr) post injection) was 0.24 ± 0.08 % dose/g. For the same compound, the “Biodistribution: Kidney” value ([2]; 60 min (1 hr) post injection) was 1.88 ± 0.10 % dose/g, the “Biodistribution: Liver” value ([2]; 60 min (1 hr) post injection) was 1.85 ± 0.11 % dose/g and the “Biodistribution: Lung” value ([2]; 60 min (1 hr) post injection) was 0.42 ± 0.08 % dose/g. The “Biodistribution: Muscle” value ([2]; 60 min (1 hr) post injection) was 0.14 ± 0.01 % dose/g, the “Biodistribution: Pancreas” value ([2]; 60 min (1 hr) post injection) was 0.23 ± 0.02 % dose/g and the “Biodistribution: Skin” value ([2]; 60 min (1 hr) post injection) was 0.33 ± 0.03 % dose/g. The “Biodistribution: Spleen” value ([2]; 60 min (1 hr) post injection) was 0.74 ± 0.10 % dose/g, the “bone to blood ratio” value ([2]; 120 min) was 39 and the “bone to muscle ratio” value ([2]; 120 min) was 103. The “Biodistribution: Blood” value ([2]; 120 min post injection) was 0.41 ± 0.07 % dose/g, the “Biodistribution: Bone” value ([2]; 120 min post injection) was 16.1 ± 2.71 % dose/g and the “Biodistribution: Brain” value ([2]; 120 min post injection) was 0.02 ± 0.01 % dose/g. The “Biodistribution: Heart” value ([2]; 120 min post injection) was 0.19 ± 0.03 % dose/g, the “Biodistribution: Kidney” value ([2]; 120 min post injection) was 2.05 ± 0.27 % dose/g and the “Biodistribution: Liver” value ([2]; 120 min post injection) was 1.99 ± 0.09 % dose/g. The “Biodistribution: Lung” value ([2]; 120 min post injection) was 0.31 ± 0.06 % dose/g, the “Biodistribution: Muscle” value ([2]; 120 min post injection) was 0.16 ± 0.01 % dose/g and the “Biodistribution: Pancreas” value ([2]; 120 min post injection) was 0.20 ± 0.03 % dose/g. For the same compound, the “Biodistribution: Skin” value ([2]; 120 min post injection) was 0.31 ± 0.04 % dose/g and the “Biodistribution: Spleen” value ([2]; 120 min post injection) was 0.71 ± 0.29 % dose/g.
